Test results reported in article PMC8699473, “An Easily Expandable Multi-Drug LC-MS Assay for the Simultaneous Quantification of 57 Oral Antitumor Drugs in Human Plasma” (Cancers, 2021).

Experiment: Long-term stability in spiked pooled human plasma

Row | Structure (SMILES) | Long-term stability, 1 month, -20°C Accuracy [%] (validation standard 2xLLOV) | Long-term stability, 1 month, -80°C Accuracy [%] (validation standard 2xLLOV) | Long-term stability, 2 month, -20°C Accuracy [%] (validation standard 2xLLOV) | Long-term stability, 2 month, -80°C Accuracy [%] (validation standard 2xLLOV) | Long-term stability, 3 month, -20°C Accuracy [%] (validation standard 2xLLOV) | Long-term stability, 3 month, -80°C Accuracy [%] (validation standard 2xLLOV) | Long-term stability, 6 weeks, 4°C, without daylight Accuracy [%] (validation standard 2xLLOV) | Long-term stability, 1 month, -20°C Accuracy [%] (validation standard LLOV) | Long-term stability, 1 month, -80°C Accuracy [%] (validation standard LLOV) | Long-term stability, 2 month, -20°C Accuracy [%] (validation standard LLOV) | Long-term stability, 2 month, -80°C Accuracy [%] (validation standard LLOV) | Long-term stability, 3 month, -20°C Accuracy [%] (validation standard LLOV) | Long-term stability, 3 month, -80°C Accuracy [%] (validation standard LLOV) | Long-term stability, 1 month, -20°C Accuracy [%] (validation standard MOV) | Long-term stability, 1 month, -80°C Accuracy [%] (validation standard MOV) | Long-term stability, 2 month, -20°C Accuracy [%] (validation standard MOV) | Long-term stability, 2 month, -80°C Accuracy [%] (validation standard MOV) | Long-term stability, 3 month, -20°C Accuracy [%] (validation standard MOV) | Long-term stability, 3 month, -80°C Accuracy [%] (validation standard MOV) | Long-term stability, 6 weeks, 4°C, without daylight Accuracy [%] (validation standard MOV) | other results
1 | O=C(c1cc(Cc2n[nH]c(=O)c3ccccc23)ccc1F)N1CCN(C(=O)C2CC2)CC1 [Olaparib] | 100.3 | 98.2 | 103.8 | 103.3 | 99.8 | 103.3 | 96.6 | 112.8 | 110.5 | 115.9 | 115.8 | 111.4 | 115.4 | 95.3 | 92.9 | 97.5 | 96.8 | 97.6 | 96.7 | 107.5 | Long-term stability, 6 weeks, 4°C, without daylight Accuracy [%] (validation standard LLOV): 105.6%; Long-term stability, 1 month, -20°C Accuracy [%] (validation standard ULOV): 99.1%; Long-term stability, 1 month, -80°C Accuracy [%] (validation standard ULOV): 98.1%; Long-term stability, 2 month, -20°C Accuracy [%] (validation standard ULOV): 102.1%; Long-term stability, 2 month, -80°C Accuracy [%] (validation standard ULOV): 101.1%; Long-term stability, 3 month, -20°C Accuracy [%] (validation standard ULOV): 98.9%; Long-term stability, 3 month, -80°C Accuracy [%] (validation standard ULOV): 100.7%; Long-term stability, 6 weeks, 4°C, without daylight Accuracy [%] (validation standard ULOV): 105.6%
2 | C=CC(=O)Nc1cc(Nc2nccc(-c3cn(C)c4ccccc34)n2)c(OC)cc1N(C)CCN(C)C [Osimertinib] | 95.2 | 93.2 | 89.2 | 103.9 | 82.8 | 100.0 | 10.5 | 83.0 | 86.9 | 84.8 | 96.9 | 66.7 | 91.8 | 97.0 | 96.6 | 95.2 | 101.6 | 90.9 | 101.8 | 53.4 | Long-term stability, 6 weeks, 4°C, without daylight Accuracy [%] (validation standard LLOV): 5.4%; Long-term stability, 1 month, -20°C Accuracy [%] (validation standard ULOV): 92.3%; Long-term stability, 1 month, -80°C Accuracy [%] (validation standard ULOV): 93.2%; Long-term stability, 2 month, -20°C Accuracy [%] (validation standard ULOV): 91.4%; Long-term stability, 2 month, -80°C Accuracy [%] (validation standard ULOV): 101.4%; Long-term stability, 3 month, -20°C Accuracy [%] (validation standard ULOV): 88.6%; Long-term stability, 3 month, -80°C Accuracy [%] (validation standard ULOV): 93.8%; Long-term stability, 6 weeks, 4°C, without daylight Accuracy [%] (validation standard ULOV): 41.5%
3 | Cc1[nH]c2ccccc2c1CCNCc1ccc(/C=C/C(=O)NO)cc1 [Panobinostat] | 52.2 | 59.0 | 66.3 | 107.6 | 57.5 | 67.6 | 11.4 | 38.2 | 33.7 | 21.2 | 29.9 | 8.2 | 34.0 | 82.0 | 84.1 | 75.7 | 87.5 | 66.1 | 82.1 | 67.6 | Long-term stability, 1 month, -20°C Accuracy [%] (validation standard ULOV): 89.6%; Long-term stability, 1 month, -80°C Accuracy [%] (validation standard ULOV): 89.9%; Long-term stability, 2 month, -20°C Accuracy [%] (validation standard ULOV): 98.1%; Long-term stability, 2 month, -80°C Accuracy [%] (validation standard ULOV): 99.4%; Long-term stability, 3 month, -20°C Accuracy [%] (validation standard ULOV): 87.5%; Long-term stability, 3 month, -80°C Accuracy [%] (validation standard ULOV): 100.2%; Long-term stability, 6 weeks, 4°C, without daylight Accuracy [%] (validation standard ULOV): 79.4%
